Test results: patent US20240383856A1 (Zedira GmbH, priority 2021, published 2024)
pIC50: −log10 of the molar value.

What was measured:
[1] = target: T1, recombinant human transglutaminase 2 (Homo sapiens, UniProt P21980); assay: Transglutaminase assay (DCC-assay): incorporation of dansylcadaverine into dimethylcasein; format: biochemical; details: recombinant human TG2 10 nM; dansylcadaverine incorporation into dimethylcasein; read-out: IC50 TG2
T1 construct: purchased Zedira T022
T1 sequence (P21980 1-687): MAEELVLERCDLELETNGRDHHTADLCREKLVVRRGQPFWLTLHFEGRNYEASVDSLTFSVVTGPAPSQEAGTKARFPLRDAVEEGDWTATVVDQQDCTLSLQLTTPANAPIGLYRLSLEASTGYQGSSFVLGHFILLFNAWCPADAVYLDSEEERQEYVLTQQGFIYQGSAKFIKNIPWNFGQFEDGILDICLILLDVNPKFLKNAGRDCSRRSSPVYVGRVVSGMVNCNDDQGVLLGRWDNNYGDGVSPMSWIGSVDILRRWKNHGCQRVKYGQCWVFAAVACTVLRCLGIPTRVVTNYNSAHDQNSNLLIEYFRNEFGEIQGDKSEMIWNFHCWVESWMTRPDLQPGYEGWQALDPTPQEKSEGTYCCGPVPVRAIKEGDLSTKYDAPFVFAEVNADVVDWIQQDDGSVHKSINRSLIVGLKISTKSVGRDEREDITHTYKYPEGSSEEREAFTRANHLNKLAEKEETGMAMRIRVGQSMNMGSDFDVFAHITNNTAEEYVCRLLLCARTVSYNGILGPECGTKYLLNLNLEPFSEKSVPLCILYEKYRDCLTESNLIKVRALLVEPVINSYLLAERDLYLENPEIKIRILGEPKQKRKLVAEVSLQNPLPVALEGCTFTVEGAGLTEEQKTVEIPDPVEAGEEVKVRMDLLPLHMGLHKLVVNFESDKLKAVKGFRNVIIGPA
Method in brief: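 IC50 is the inhibitor level that blocks 50% of initial activity. Activity is the fluorescence slope (λex 330, λem 500 nm) between 20 and 30 min of a 37 °C run, relative to a 2% DMSO control. The enzyme is recombinant human tissue transglutaminase, 10 nM final, tested against a 1:2 inhibitor dilution series in a pH 8.0 mix with 10 mM CaCl2, 10 mM glutathione, 16.7 µM dansylcadaverine and 4 µM N,N-dimethylcasein.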

[2] = logD by shake flask method (octanol / PBS pH 7.4, HPLC); format: physicochemical; details: octanol / PBS pH 7.4, shake flask
Method in brief: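 LogD obtained by HPLC measurement of how the compound distributes between PBS (pH 7.4) and octanol in a shake-flask experiment.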

[3] = Caco-2 permeability assay (CacoReady kit); format: in vitro ADME; details: human, Caco-2, Caco-2 barrier, CacoReady kit; above 1×10^−6 cm/s classified as permeable
Method in brief: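 Intestinal permeability modelled with kit-supplied Caco-2 barriers, run as the maker specifies; each compound reported as Papp.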

With `CNC(=O)C(=O)CC[C@H](NC(=O)c1csc(Br)n1)C(=O)Nc1cccn(CC(=O)NC2C3CC4CC(C3)CC2C4)c1=O` (stereo partly drawn) [II-35, (S)-2-(2-bromothiazole-4-carboxamido)-N1-(1-(2-(2-adamantylamino)-2-oxoethyl)-2-oxo-1,2-dihydropyridin-3-yl)-N6-methyl-5-oxohexanediamide] the pIC50 [1] was 6.40 to 7.40, the logD [2] was 1 to 3 and the Papp [3] was 1 to 10 ×10⁻⁶ cm/s.
For `CNC(=O)C(=O)CC[C@H](NC(=O)c1oc2ccccc2c1C)C(=O)Nc1cccn(CC(=O)NC23CCC(CC2)C3)c1=O` [II-95, (S)-N1-(1-(2-(bicyclo[2.2.1]heptan-1-ylamino)-2-oxoethyl)-2-oxo-1,2-dihydropyridin-3-yl)-N6-methyl-2-(3-methylbenzofuran-2-carboxamido)-5-oxohexanediamide], the pIC50 [1] was 6.40 to 7.40, the logD [2] was 1 to 3 and the Papp [3] was 1 to 10 ×10⁻⁶ cm/s.
With `CNC(=O)C(=O)CC[C@H](NC(=O)c1c[nH]cn1)C(=O)Nc1cccn(CC(=O)NC[C@@H]2CC[C@@H]3C[C@H]2C3(C)C)c1=O` [II-209, (S)-N1-(1-(2-(((1R,2R,5R)-6,6-dimethylbicyclo[3.1.1]heptan-2-yl)methylamino)-2-oxoethyl)-2-oxo-1,2-dihydropyridin-3-yl)-2-(1H-imidazole-4-carboxamido)-N6-methyl-5-oxohexanediamide] the pIC50 [1] was 5.60 to 6.40, the logD [2] was 1 to 3 and the Papp [3] was under 1 ×10⁻⁶ cm/s.
For `CNC(=O)C(=O)CC[C@H](NC(=O)c1cc2ccccc2o1)C(=O)Nc1cccn(CC(=O)NC2C3CCCC2CC3)c1=O` (stereo partly drawn) [II-171, (2S)-2-(benzofuran-2-carboxamido)-N1-(1-(2-(bicyclo[3.2.1]octan-8-ylamino)-2-oxoethyl)-2-oxo-1,2-dihydropyridin-3-yl)-N6-methyl-5-oxohexanediamide], the pIC50 [1] was over 7.40, the logD [2] was under 1 and the Papp [3] was 1 to 10 ×10⁻⁶ cm/s.
With `CNC(=O)C(=O)CC[C@H](NC(=O)c1cnc(NC(C)=O)s1)C(=O)Nc1cccn(CC(=O)NC23CC(C2)C3)c1=O` [II-191, (S)-2-(2-acetamidothiazole-5-carboxamido)-N1-(1-(2-(bicyclo[1.1.1]pentan-1-ylamino)-2-oxoethyl)-2-oxo-1,2-dihydropyridin-3-yl)-N6-methyl-5-oxohexanediamide] the pIC50 [1] was 5.60 to 6.40, the logD [2] was under 1 and the Papp [3] was under 1 ×10⁻⁶ cm/s.
In the case of `CNC(=O)C(=O)CC[C@H](NC(=O)c1cccnc1)C(=O)Nc1cccn(CC(=O)NC2C3CC4CC(C3)CC2C4)c1=O` (stereo partly drawn) [II-111, (S)-N1-(1-(2-(2-adamantylamino)-2-oxoethyl)-2-oxo-1,2-dihydropyridin-3-yl)-N6-methyl-2-(nicotinamido)-5-oxohexanediamide], the pIC50 [1] was over 7.40, the logD [2] was 1 to 3 and the Papp [3] was under 1 ×10⁻⁶ cm/s.
`CNC(=O)C(=O)CC[C@H](NC(=O)c1sc(C)nc1C)C(=O)Nc1cccn(CC(=O)NC2C3CC4CC(C3)CC2C4)c1=O` (stereo partly drawn) [II-20, (S)-2-(2,4-dimethylthiazole-5-carboxamido)-N1-(1-(2-(2-adamantylamino)-2-oxoethyl)-2-oxo-1,2-dihydropyridin-3-yl)-N6-methyl-5-oxohexanediamide] gave a pIC50 [1] of 5.60 to 6.40, a logD [2] of 1 to 3 and a Papp [3] of 1 to 10 ×10⁻⁶ cm/s.
With `CNC(=O)C(=O)CC[C@H](NC(=O)c1sc(-c2ccccc2)nc1C)C(=O)Nc1cccn(CC(=O)NC2C3CC4CC(C3)CC2C4)c1=O` (stereo partly drawn) [II-19, (S)-N1-(1-(2-(2-adamantylamino)-2-oxoethyl)-2-oxo-1,2-dihydropyridin-3-yl)-N6-methyl-2-(4-methyl-2-phenylthiazole-5-carboxamido)-5-oxohexanediamide] the pIC50 [1] was 6.40 to 7.40, the logD [2] was 3 to 5 and the Papp [3] was under 1 ×10⁻⁶ cm/s.
With `CC(C)(C)NC(=O)C(=O)CC[C@H](NC(=O)[C@@H]1CN2CCN1CC2)C(=O)Nc1cccn(CC(=O)NC2C3CC4CC(C3)CC2C4)c1=O` (stereo partly drawn) [II-175, (S)-2-((S)-1,4-diazabicyclo[2.2.2]octane-2-carboxamido)-N6-tert-butyl-N1-(1-(2-(2-adamantylamino)-2-oxoethyl)-2-oxo-1,2-dihydropyridin-3-yl)-5-oxohexanediamide] the pIC50 [1] was 5.60 to 6.40, the logD [2] was 1 to 3 and the Papp [3] was under 1 ×10⁻⁶ cm/s.
In the case of `NC(=O)C(=O)CC[C@H](NC(=O)c1cc2ccccc2o1)C(=O)Nc1cccn(CC(=O)NC2C3CC4CC(C3)CC2C4)c1=O` (stereo partly drawn) [II-124, (S)-2-(benzofuran-2-carboxamido)-N1-(1-(2-(2-adamantylamino)-2-oxoethyl)-2-oxo-1,2-dihydropyridin-3-yl)-5-oxohexanediamide], the pIC50 [1] was 6.40 to 7.40, the logD [2] was 1 to 3 and the Papp [3] was 1 to 10 ×10⁻⁶ cm/s.
Work on `CNC(=O)C(=O)CC[C@H](NC(=O)c1oc2ccccc2c1C)C(=O)Nc1cccn(CC(=O)NCC23CC4CC(CC(C4)C2)C3)c1=O` [II-87, (S)-N1-(1-(2-(1-adamantylmethylamino)-2-oxoethyl)-2-oxo-1,2-dihydropyridin-3-yl)-N6-methyl-2-(3-methylbenzofuran-2-carboxamido)-5-oxohexanediamide] yielded a pIC50 [1] of 6.40 to 7.40, a logD [2] of 3 to 5 and a Papp [3] of 1 to 10 ×10⁻⁶ cm/s.
In the case of `CNC(=O)C(=O)CC[C@H](NC(=O)[C@H]1COCCN1)C(=O)Nc1cccn(CC(=O)NC2C3CC4CC(C3)CC2C4)c1=O` (stereo partly drawn) [II-60, (S)-N1-(1-(2-(2-adamantylamino)-2-oxoethyl)-2-oxo-1,2-dihydropyridin-3-yl)-N6-methyl-2-((R)-morpholine-3-carboxamido)-5-oxohexanediamide], the pIC50 [1] was 6.40 to 7.40, the logD [2] was under 1 and the Papp [3] was under 1 ×10⁻⁶ cm/s.
In the case of `CNC(=O)C(=O)CC[C@H](NC(=O)c1cnn(C)c1)C(=O)Nc1cccn(CC(=O)NC2C3CC4CC(C3)CC2C4)c1=O` (stereo partly drawn) [II-139, (S)-N1-(1-(2-(2-adamantylamino)-2-oxoethyl)-2-oxo-1,2-dihydropyridin-3-yl)-N6-methyl-2-(1-methyl-1H-pyrazole-4-carboxamido)-5-oxohexanediamide], the pIC50 [1] was 5.60 to 6.40, the logD [2] was under 1 and the Papp [3] was under 1 ×10⁻⁶ cm/s.
Compound `CNC(=O)C(=O)CC[C@H](NC(=O)[C@@H]1CCCNC1)C(=O)Nc1cccn(CC(=O)NC2C3CC4CC(C3)CC2C4)c1=O` (stereo partly drawn) [II-59, (S)-N1-(1-(2-(2-adamantylamino)-2-oxoethyl)-2-oxo-1,2-dihydropyridin-3-yl)-N6-methyl-5-oxo-2-((R)-piperidine-3-carboxamido)hexanediamide] has a pIC50 [1] of 6.40 to 7.40, a logD [2] of 1 to 3 and a Papp [3] of under 1 ×10⁻⁶ cm/s.
Compound `CNC(=O)C(=O)CC[C@H](NC(=O)c1cc(C(=O)OC)cc([N+](=O)[O-])c1)C(=O)Nc1cccn(CC(=O)NC2C3CC4CC(C3)CC2C4)c1=O` (stereo partly drawn) [II-62, (S)-methyl 3-(1-(1-(2-(2-adamantylamino)-2-oxoethyl)-2-oxo-1,2-dihydropyridin-3-ylamino)-6-(methylamino)-1,5,6-trioxohexan-2-ylcarbamoyl)-5-nitrobenzoate] has a pIC50 [1] of over 7.40, a logD [2] of 1 to 3 and a Papp [3] of 1 to 10 ×10⁻⁶ cm/s.
For `CNC(=O)C(=O)CC[C@H](NC(=O)c1nc(C)c(C)s1)C(=O)Nc1cccn(CC(=O)NC2C3CC4CC(C3)CC2C4)c1=O` (stereo partly drawn) [II-38, (S)-2-(4,5-dimethylthiazole-2-carboxamido)-N1-(1-(2-(2-adamantylamino)-2-oxoethyl)-2-oxo-1,2-dihydropyridin-3-yl)-N6-methyl-5-oxohexanediamide], the pIC50 [1] was 5.60 to 6.40, the logD [2] was 3 to 5 and the Papp [3] was 1 to 10 ×10⁻⁶ cm/s.
Compound `CNC(=O)C(=O)CC[C@H](NC(=O)c1cnnn1C)C(=O)Nc1cccn(CC(=O)NC2C3CC4CC(C3)CC2C4)c1=O` (stereo partly drawn) [II-51, (S)-N1-(1-(2-(2-adamantylamino)-2-oxoethyl)-2-oxo-1,2-dihydropyridin-3-yl)-N6-methyl-2-(1-methyl-1H-1,2,3-triazole-5-carboxamido)-5-oxohexanediamide] has a pIC50 [1] of 6.40 to 7.40, a logD [2] of under 1 and a Papp [3] of 1 to 10 ×10⁻⁶ cm/s.
`CNC(=O)C(=O)CC[C@H](NC(=O)c1ccncc1)C(=O)Nc1cccn(CC(=O)NC2C3CC4CC(C3)CC2C4)c1=O` (stereo partly drawn) [II-112, (S)-2-(isonicotinamido)-N1-(1-(2-(2-adamantylamino)-2-oxoethyl)-2-oxo-1,2-dihydropyridin-3-yl)-N6-methyl-5-oxohexanediamide] gave a pIC50 [1] of over 7.40, a logD [2] of 1 to 3 and a Papp [3] of under 1 ×10⁻⁶ cm/s.
In the case of `O=C(Cn1cccc(NC(=O)[C@H](CCC(=O)C(=O)NCc2ccccc2)NC(=O)c2cc3ccccc3o2)c1=O)NC1C2CC3CC(C2)CC1C3` (stereo partly drawn) [II-123, (S)-2-(benzofuran-2-carboxamido)-N6-benzyl-N1-(1-(2-(2-adamantylamino)-2-oxoethyl)-2-oxo-1,2-dihydropyridin-3-yl)-5-oxohexanediamide], the pIC50 [1] was 5.60 to 6.40, the logD [2] was 3 to 5 and the Papp [3] was 1 to 10 ×10⁻⁶ cm/s.
